Measured values published in patent publication US8791132B2, “Compounds and methods for treatment of hypertension” (Medivation Technologies, Inc., priority 2011, dated 2014).
Several values for one entry are separate records, joined by “and”; a condition that tells them apart may be missing. Equal values may be shown once. Read-outs that look alike come from different tables or passages of the source.

Assays:
[1] = target: T1, rat adrenergic α1B receptor (Rattus norvegicus, UniProt P15823); assay: Radioligand binding, adrenergic α1B ([3H]Prazosin); conditions: for inhibition at 0.03 µM / inhibition at 0.1 µM / Percentage inhibition of ligand binding, Adrenergic α1B / Percentage inhibition of ligand binding, Adrenergic α1B (0.03 μM) / Percentage inhibition of ligand binding, Adrenergic α1B (0.1 μM): [3H]Prazosin
T1 construct: rat adrenergic α1B receptor obtained from Wistar Rat liver; from tissue; host or cells: Wistar rat liver
T1 sequence (P15823 1-515): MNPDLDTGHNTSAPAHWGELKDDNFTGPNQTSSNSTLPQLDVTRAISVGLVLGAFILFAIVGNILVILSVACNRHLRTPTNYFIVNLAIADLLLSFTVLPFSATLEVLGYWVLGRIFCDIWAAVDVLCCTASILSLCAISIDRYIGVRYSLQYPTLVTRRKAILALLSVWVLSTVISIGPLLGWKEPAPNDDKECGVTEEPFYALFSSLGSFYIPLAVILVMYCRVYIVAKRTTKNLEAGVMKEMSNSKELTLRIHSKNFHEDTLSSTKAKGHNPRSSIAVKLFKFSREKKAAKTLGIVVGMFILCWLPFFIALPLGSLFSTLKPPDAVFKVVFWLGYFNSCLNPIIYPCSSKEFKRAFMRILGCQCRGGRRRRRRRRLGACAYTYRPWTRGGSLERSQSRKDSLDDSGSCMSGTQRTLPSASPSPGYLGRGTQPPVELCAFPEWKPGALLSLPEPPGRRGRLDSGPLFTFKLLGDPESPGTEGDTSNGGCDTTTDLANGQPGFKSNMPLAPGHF
Method in brief: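 Specific binding, taken as total minus that remaining with 10 μM phentolamine, is measured after filtration and counting. Rat liver receptor preparation and 0.25 nM [3H]prazosin are incubated with compound in 50 mM Tris-HCl (pH 7.4, 0.5 mM EDTA) at 25° C for 60 min. Activity is reported as percent inhibition.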

[2] = target: T2, human recombinant adrenergic α1D receptor (Homo sapiens, UniProt P25100); assay: Radioligand binding, adrenergic α1D ([3H]Prazosin); conditions: [3H]Prazosin
T2 construct: expressed in transfected cells; host or cells: HEK-293
T2 sequence (P25100 1-572): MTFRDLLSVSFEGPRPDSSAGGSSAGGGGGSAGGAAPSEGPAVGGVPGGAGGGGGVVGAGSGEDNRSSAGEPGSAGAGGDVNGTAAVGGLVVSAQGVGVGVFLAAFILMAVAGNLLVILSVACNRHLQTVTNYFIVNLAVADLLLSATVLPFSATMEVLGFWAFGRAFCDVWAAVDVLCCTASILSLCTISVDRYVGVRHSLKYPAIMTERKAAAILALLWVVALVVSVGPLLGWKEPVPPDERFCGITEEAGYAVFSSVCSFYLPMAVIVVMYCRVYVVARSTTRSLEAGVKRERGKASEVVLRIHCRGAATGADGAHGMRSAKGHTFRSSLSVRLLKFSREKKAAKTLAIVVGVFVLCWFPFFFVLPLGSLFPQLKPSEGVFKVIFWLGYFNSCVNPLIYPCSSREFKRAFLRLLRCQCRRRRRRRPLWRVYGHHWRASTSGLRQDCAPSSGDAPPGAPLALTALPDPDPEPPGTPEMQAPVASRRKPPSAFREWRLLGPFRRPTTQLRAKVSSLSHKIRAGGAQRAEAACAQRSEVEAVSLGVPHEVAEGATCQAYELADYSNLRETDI
Experimental: Compounds were incubated with 0.6 nM [3H]Prazosin for 60 min at 25° C. Non-specific binding was estimated in the presence of 10 μM phentolamine. Receptor proteins were filtered and washed, the filters were then counted to determine [3H]Prazosin specifically bound. […] Biochemical assay results are presented as the percent inhibition of specific binding in Table B1.

[3] = target: T3, human recombinant adrenergic α2B receptor (Homo sapiens, UniProt P18089); assay: Radioligand binding, adrenergic α2B ([3H]Rauwolscine); conditions: for Ki: read-out: Ki α2B
T3 construct: expressed in transfected cells; host or cells: CHO-K1
T3 sequence (P18089 1-450): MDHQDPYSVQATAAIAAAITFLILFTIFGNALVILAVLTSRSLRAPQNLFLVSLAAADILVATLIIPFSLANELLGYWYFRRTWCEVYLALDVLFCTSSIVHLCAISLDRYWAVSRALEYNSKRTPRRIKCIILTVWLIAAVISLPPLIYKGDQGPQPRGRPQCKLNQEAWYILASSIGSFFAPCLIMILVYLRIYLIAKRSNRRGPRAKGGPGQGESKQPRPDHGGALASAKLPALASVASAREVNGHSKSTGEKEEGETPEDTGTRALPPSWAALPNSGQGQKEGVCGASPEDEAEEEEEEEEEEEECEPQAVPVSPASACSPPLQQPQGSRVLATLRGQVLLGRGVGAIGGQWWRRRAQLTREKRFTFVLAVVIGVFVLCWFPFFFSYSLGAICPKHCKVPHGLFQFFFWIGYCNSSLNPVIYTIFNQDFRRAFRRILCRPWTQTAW
Method in brief: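 Assay used CHO-K1-expressed human α2B receptor in Tris-HCl pH 7.4 buffer with MgCl2, EDTA and BSA; 60 min incubation at 25 °C.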

[4] = read-out: Percentage inhibition of ligand binding, Adrenergic α1B (0.03 μM), compound at 0.03 μM, repeat datapoints each shown
[5] = read-out: Percentage inhibition of ligand binding, Adrenergic α1B (0.1 μM), compound at 0.1 μM, repeat datapoints each shown
[6] = read-out: Percentage inhibition of ligand binding, Adrenergic α2B (0.03 μM), compound at 0.03 μM, [3H]Rauwolscine, repeat datapoints each shown
[7] = read-out: Percentage inhibition of ligand binding, Adrenergic α2B (0.1 μM), compound at 0.1 μM, [3H]Rauwolscine, repeat datapoints each shown
[8] = compound at 0.03 μM, repeat assays, each datapoint shown, 0.03 µM
[9] = compound at 0.1 μM, repeat assays, each datapoint shown, 0.1 µM
[10] = compound at 0.1 μM, repeat assays, each datapoint shown, read-out: Percentage inhibition of ligand binding, Adrenergic α1D
[11] = compound at 0.03 μM, [3H]Rauwolscine, repeat assays, each datapoint shown, 0.03 µM
[12] = compound at 0.03 μM, repeat assays, each datapoint shown, read-out: Percentage inhibition of ligand binding, Adrenergic α1B
[13] = compound at 0.1 μM, repeat assays, each datapoint shown, read-out: Percentage inhibition of ligand binding, Adrenergic α1B
[14] = compound at 0.03 μM, [3H]Rauwolscine, repeat assays, each datapoint shown, read-out: Percentage inhibition of ligand binding, Adrenergic α2B
[15] = compound at 0.1 μM, [3H]Rauwolscine, repeat assays, each datapoint shown, read-out: Percentage inhibition of ligand binding, Adrenergic α2B
[16] = compound at 0.1 μM, [3H]Rauwolscine, repeat assays, each datapoint shown, 0.1 µM
[17] = compound at 0.03 μM, repeat datapoints each shown, 0.03 µM
[18] = compound at 0.1 μM, repeat datapoints each shown, 0.1 µM
[19] = compound at 0.03 μM, [3H]Rauwolscine, repeat datapoints each shown, 0.03 µM

## Cc1ccc(C(O)Cn2c3c(c4cc(C)ccc42)CN(C)CC3)cc1 (racemic) [compound 183, racemic-2-(1,2,3,4-tetrahydro-2,8-dimethylpyrido[4,3-b]indol-5-yl)-1-p-tolylethanol]
[1]; [4]
  inhibition at 0.03 µM: 50%
[1]; [5]
  inhibition at 0.1 µM: 71%
[2]; read-out: Percentage inhibition of ligand binding, Adrenergic α1D (0.1 μM), compound at 0.1 μM, repeat datapoints each shown
  inhibition at 0.1 µM: 36%
[3]; [6]
  inhibition at 0.03 µM: 68%
[3]; [7]
  inhibition at 0.1 µM: 80%

## Cc1ccc2c(c1)c1c(n2CC(O)c2ccncc2)CCN(C)C1 (single isomer, unassigned) [3b]
[1]
  Ki: 51 nM
[1]; [8]
  Percentage inhibition of ligand binding, Adrenergic α1B: 27% and 32% and 34%
[1]; [9]
  Percentage inhibition of ligand binding, Adrenergic α1B: 50% and 55% and 57% and 61%
[2]; [10]
  inhibition at 0.1 µM: 18%
[3]; [11]
  Percentage inhibition of ligand binding, Adrenergic α2B: 100% and 101% and 102% and 112%
[3]
  Ki: 0.26 nM and 0.28 nM and 0.46 nM

## CN1CCc2c(c3cc(Cl)ccc3n2CC(O)c2ccncc2)C1 (single isomer, unassigned) [4a]
[1]; [12]
  inhibition at 0.03 µM: 25%
[1]; [9]
  Percentage inhibition of ligand binding, Adrenergic α1B: 57%
[1]; [13]
  inhibition at 0.1 µM: 52%
[3]; [11]
  Percentage inhibition of ligand binding, Adrenergic α2B: 103%
[3]; [14]
  inhibition at 0.03 µM: 99%
[3]; [15]
  inhibition at 0.1 µM: 104%
[3]
  Ki: 0.64 nM

## Cc1ccc2c(c1)c1c(n2CC(C)(O)c2cccnc2)CCN(C)C1 (single isomer, unassigned) [5b, 1-(1,2,3,4-tetrahydro-2,8-dimethylpyrido[4,3-b]indol-5-yl)-2-(pyridin-3-yl)propan-2-ol]
[1]
  Ki: 184 nM
[1]; [8]
  Percentage inhibition of ligand binding, Adrenergic α1B: 11% and 15%
[1]; [12]
  inhibition at 0.03 µM: 10%
[1]; [9]
  Percentage inhibition of ligand binding, Adrenergic α1B: 23% and 30% and 33%
[2]; [10]
  inhibition at 0.1 µM: 1%
[3]; [11]
  Percentage inhibition of ligand binding, Adrenergic α2B: 81% and 86% and 90% and 100%
[3]; [16]
  Percentage inhibition of ligand binding, Adrenergic α2B: 82% and 100% and 107%
[3]
  Ki: 0.95 nM and 1.06 nM and 4.53 nM

## Cc1ccc2c(c1)c1c(n2CC(O)c2ccncc2)CCN(C)CC1 (single isomer, unassigned) [13b, 2-(3,9-dimethyl-2,3,4,5-tetrahydroazepino[4,5-b]indol-6(1H)-yl)-1-(pyridin-4-yl)ethanol]
[1]; [12]
  inhibition at 0.03 µM: 68%
[1]; [13]
  inhibition at 0.1 µM: 91%
[3]; [11]
  Percentage inhibition of ligand binding, Adrenergic α2B: 102%
[3]; [14]
  inhibition at 0.03 µM: 100%
[3]
  Ki: 0.62 nM

## Cc1cnc2c(c1)c1c(n2CC(C)(O)c2cccnc2)CCN2CCCC12 (single isomer, unassigned) [26a]
[1]; [12]
  inhibition at 0.03 µM: 32%
[1]; [9]
  Percentage inhibition of ligand binding, Adrenergic α1B: 52% and 61%
[3]; [11]
  Percentage inhibition of ligand binding, Adrenergic α2B: 101% and 107%
[3]
  Ki: 0.56 nM

## Cc1ccc2c(c1)c1c(n2CC(N)c2ccncc2)CCN(C)C1 (single isomer, unassigned) [27a, 2-(1,2,3,4-tetrahydro-2,8-dimethylpyrido[4,3-b]indol-5-yl)-1-(pyridin-4-yl)ethanamine]
[1]; [12]
  inhibition at 0.03 µM: 34%
[1]; [9]
  Percentage inhibition of ligand binding, Adrenergic α1B: 59% and 64%
[3]; [11]
  Percentage inhibition of ligand binding, Adrenergic α2B: 76% and 83%
[3]; [16]
  Percentage inhibition of ligand binding, Adrenergic α2B: 94%
[3]
  Ki: 4.32 nM

## Cc1ccc2c(c1)c1c(n2CC(O)c2ccncc2)CCNC1 (single isomer, unassigned) [39a, 2-(8-methyl-1,2,3,4-tetrahydro-pyrido[4,3-b]indol-5-yl)-1-pyridin-4-yl-ethanol]
[1]; [12]
  inhibition at 0.03 µM: 9%
[1]; [9]
  Percentage inhibition of ligand binding, Adrenergic α1B: 33%
[1]; [13]
  inhibition at 0.1 µM: 38%
[3]; [14]
  inhibition at 0.03 µM: 86%
[3]; [15]
  inhibition at 0.1 µM: 92%
[3]
  Ki: 2.5 nM

## CN1CCc2c(n(CC(O)c3ccncc3)c3ccc(Cl)cc23)C1 (single isomer, unassigned) [41a]
[1]; [9]
  Percentage inhibition of ligand binding, Adrenergic α1B: 43%
[3]; [11]
  Percentage inhibition of ligand binding, Adrenergic α2B: 14%

## Cc1cnc2c(c1)c1c(n2CCc2ccc(C)nc2)CCN2CCCC12 (single isomer, unassigned) [74a, 10-methyl-7-(2-(6-methylpyridin-3-yl)ethyl)-2,3,5,6,7,11c-hexahydro-1H-pyrido[3′,2′:4,5]pyrrolo[2,3-g]indolizine]
[1]
  Ki: 4.72 nM
[1]; [12]
  inhibition at 0.03 µM: 81%
[1]; [9]
  Percentage inhibition of ligand binding, Adrenergic α1B: 96%
[1]; [13]
  inhibition at 0.1 µM: 91%
[2]; compound at 0.03 μM, repeat assays, each datapoint shown, read-out: Percentage inhibition of ligand binding, Adrenergic α1D
  inhibition at 0.03 µM: 42%
[2]; [10]
  inhibition at 0.1 µM: 61%
[3]; [14]
  inhibition at 0.03 µM: 93%
[3]; [15]
  inhibition at 0.1 µM: 101%
[3]
  Ki: 1.42 nM

## Cc1ccc2c(c1)c1c(n2CC(O)c2ccncc2)CCN2CCCC12 (single isomer, unassigned) [129d]
[1]; [17]
  Percentage inhibition of ligand binding, Adrenergic α1B (0.03 μM): 93%
[1]; [18]
  Percentage inhibition of ligand binding, Adrenergic α1B (0.1 μM): 94% and 99%
[3]
  Ki: 0.35 nM

## Cc1ccc2c(c1)c1c(n2CC(O)c2ccc(C(N)=O)nc2)CCN(C)C1 (single isomer, unassigned) [144b, 5-[2-(2,8-dimethyl-1,2,3,4-tetrahydro-pyrido[4,3-b]indol-5-yl)-1-hydroxy-ethyl]-pyridine-2-carboxylic acid amide]
[1]; [17]
  Percentage inhibition of ligand binding, Adrenergic α1B (0.03 μM): 36%
[1]; [18]
  Percentage inhibition of ligand binding, Adrenergic α1B (0.1 μM): 60% and 66%
[1]; [4]
  inhibition at 0.03 µM: 28%
[1]; [5]
  inhibition at 0.1 µM: 53%
[3]; [19]
  Percentage inhibition of ligand binding, Adrenergic α2B (0.03 μM): 85% and 87%
[3]; compound at 0.1 μM, [3H]Rauwolscine, repeat datapoints each shown, 0.1 µM
  Percentage inhibition of ligand binding, Adrenergic α2B (0.1 μM): 102%
[3]
  Ki: 1.7 nM and 2.36 nM
[3]; [6]
  inhibition at 0.03 µM: 83%
[3]; [7]
  inhibition at 0.1 µM: 100%

## Cc1ccc2c(c1)c1c(n2CC(C)(O)c2cnccn2)CCN2CCCC12 (single isomer, unassigned) [176a]
[1]; [18]
  Percentage inhibition of ligand binding, Adrenergic α1B (0.1 μM): 79%
[1]; [4]
  inhibition at 0.03 µM: 52%
[3]; [19]
  Percentage inhibition of ligand binding, Adrenergic α2B (0.03 μM): 93% and 98% and 100%
[3]
  Ki: 0.53 nM
[3]; [7]
  inhibition at 0.1 µM: 105%
